Measurements: EP0522596A1, “Method and means for inducing constriction of the pupil in the eye” (Kabi Pharmacia AB, priority 1989, dated 1993)
“Also recorded” adds a separate entry of the source. Ends that are not written are not given here.

Columns and labels:
pupil [1] = assay: Antagonism of the CCK-8 miosis dose-response in the monkey eye in vivo; set-up: species or system monkeys; conditions: 0.75 µg of Lorglumide injected into the anterior chamber
Procedure: Example 5: Dose-response determination of CCK-8 was carried out on one eye of atropine treated, pentobarbital anesthesized monkeys in accordance with the description in Example 1. Thereafter 0.75µg of Lorglumide in 15µl of isotonic saline was injected into the anterior chamber of the other eye. The CCK-8 dose-response relationship was then determined in the same way as in the case of the first eye.

pupil [2] = assay: Capsaicin-induced miosis in monkeys with and without Lorglumide pretreatment; type: in vivo, Macaca fascicularis
Procedure: Example 7: Monkeys (Macaca fascicularis) were anesthesized, pretreated with atropine and cannulated as described in Example 1. Then 10 µl of a 1% solution of Capsaicin was injected into the anterior chamber; the diameter of the pupil was measured 15 minutes later. The decrease in pupil size obtained with this dose varied from 0 to 1.5 mm.

[3] = tested on: receptor present on the sphincter muscle; type: in vivo; conditions: nerve blockade with tetrodotoxin; pretreatment with indomethacin
[4] = tested on: sphincter muscle of the iris; conditions: injected into the anterior chamber; Bill et al., 1979; cited from earlier work
pupil [5] = conditions: primates; Mandahl et al., 1980; cited from earlier work

For `CCCCCN(CCCCC)C(=O)C(CCC(=O)O)NC(=O)c1ccc(Cl)c(Cl)c1` (racemic) [Lorglumide, D,L-4-(3,4-dichlorobenzoylamino)-5-(dipentylamino)-5-oxo-pentanoic acid], the “shift of the CCK-8 dose-response curve to the right” value (pupil [1]) was “more than one order of magnitude” and the “effect on the pupil response to Capsaicin” value (pupil [2]; pretreatment with 7.5 µg Lorglumide in 15 µl, capsaicin-sensitive animals) was “decreased the response to Capsaicin; also recorded: most of the effect on the pupil was eliminated”.
For `COc1cc(CNC(=O)CCCCC=CC(C)C)ccc1O` [Capsaicin, 8-methyl-N-vanillyl-6-nonenamide], the “miotic response in monkeys” value (pupil [2]; cynomolgus monkey, in vivo) was “less consistent and less pronounced as compared to the response in rabbits”.
In the case of `COc1ccc2c(c1)c(CC(=O)O)c(C)n2C(=O)c1ccc(Cl)cc1` [indomethacin], the “effect of pretreatment on the miosis response to CCK” value [3] was “do not cause a decrease in the miosis response”.
For “substance P (RPKPQQFFGLM; ends and bridges not checked; UniProt P20366 58-68, looked up) [neuropeptide released in the eye on irritation; synthetically produced]”, the “response of the sphincter muscle of the iris” value [4] is given as “substantial contractive response” and the “pupillary response to substance P” value (pupil [5]) is given as “totally absent”.
